Test results: PMC4240912, “Multifaceted interplay between lipophilicity, protein interaction and luminescence parameters of non-intercalative ruthenium(II) polypyridyl complexes controlling cellular imaging and cytotoxic properties” (Journal of Biological Inorganic Chemistry, 2014)
Read-outs that look alike come from different tables or passages of the source.

Key:
[1] = tested on: murine endothelial cells isolated from aorta-gonad-mesonephros (AGM) region of 10.5 dpc embryos (MAgEC 10.5); experiment: Alamar Blue cell viability, MAgEC 10.5; type: cell-based; conditions: MAgEC 10.5, 24 h
Procedure: FVB mouse lung microvascular endothelial cells (MLuMEC FVB) and murine endothelial cells isolated from aorta-gonad-mesonephros (AGM) region of 10.5 dpc embryos (MAgEC 10.5) were cultured in OptiMEM with Glutamax-I (Gibco Invitrogen) supplemented with 2% fetal bovine serum (FBS), 0.4% gentamycin and 0.2% fungizone. […]
10% FBS, 1% peniciline and streptomycin and 0.2% fungizone. Cells were routinely cultured at 37 °C in a humidified incubator in 5% CO2 atmosphere.
Cell viability was measured using Alamar Blue assay. Cells were seeded on 96 wells plate with density of 1 × 10^4 cells per cm2 and cultured for 1 day. Then cells were incubated with various concentrations of compounds in medium with or without 2% FBS for 24 and 48 h under normoxic and hypoxic conditions in the darkness. Next cells were washed with PBS and incubated in Alamar Blue solution for 3 h. The cell viability was quantified at 605 nm using 560 nm excitation light (VICTOR 3V multilabel plate reader PerkinElmer or Tecan Infinite200 Reader). Experiments were performed in triplicates and each experiment was performed at least three times to get the mean values ± standard derivation. The viability was calculated with regard to the untreated cells control. The IC50 values were determined using Hill equation (Origin 9.0). […]

[2] = target: human serum albumin (HSA) (Homo sapiens, UniProt P02768); experiment: HSA fluorescence quenching (protein-binding experiments); conditions: [HSA] = 1 μM, [Ru] 0–10 μM, PBS pH 7.4, 37 °C
human serum albumin (HSA), sequence (P02768 25-609): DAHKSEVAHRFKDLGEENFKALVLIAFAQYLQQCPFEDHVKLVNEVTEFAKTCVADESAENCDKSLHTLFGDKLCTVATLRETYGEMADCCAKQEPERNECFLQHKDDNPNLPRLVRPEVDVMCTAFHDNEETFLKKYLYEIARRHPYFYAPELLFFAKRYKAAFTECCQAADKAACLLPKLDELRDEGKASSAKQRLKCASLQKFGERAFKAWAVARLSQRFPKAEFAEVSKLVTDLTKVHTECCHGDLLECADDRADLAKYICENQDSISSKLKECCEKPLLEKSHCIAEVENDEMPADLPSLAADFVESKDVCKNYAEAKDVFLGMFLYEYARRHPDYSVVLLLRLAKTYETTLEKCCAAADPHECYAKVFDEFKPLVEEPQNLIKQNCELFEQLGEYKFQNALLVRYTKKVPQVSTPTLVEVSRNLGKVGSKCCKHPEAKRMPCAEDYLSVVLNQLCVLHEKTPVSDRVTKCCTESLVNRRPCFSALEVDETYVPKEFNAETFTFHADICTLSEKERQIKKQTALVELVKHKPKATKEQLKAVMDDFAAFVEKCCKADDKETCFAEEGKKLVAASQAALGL
Procedure: The protein stock solution was prepared by dissolving human serum albumin (HSA) in water and its concentration was determined spectrophotometrically from the molar absorptivity of 4.4 × 10^4 cm^−1 M^−1 at 280 nm. The emission spectra were recorded between 305 and 500 nm upon excitation at 295 nm resulting in selective excitation of tryptophan residue of HSA. The average of three scans was subjected to smoothing and the fluorescence intensities were corrected due to dilution effects. Protein-binding experiments were conducted by measuring fluorescence spectra of protein solution (1 μM) in the presence of different amounts of ruthenium compounds (0–10 μM) in PBS buffer pH 7.4 at 37 °C. Ru–protein solutions were allowed to incubate for 5 min before the emission spectra were recorded. The quantum yield and lifetime of luminescence for ruthenium complexes in the present of HSA (1 μM) was measured using the same procedure as described for ruthenium complexes alone (the HSA/Ru-complex ratio is given in the figure caption). […]
When molecules are bound to HSA, the change in fluorescence of HSA (Trp214) is induced ether by quenching by binding of molecules in close proximity of the residue or by conformational change of protein caused by the binding or other interactions. Albumin […]
polypyridyl complexes. The contribution to the observed emission from ruthenium complex is marginal. The Stern-Volmer equation has been employed for quantitative analysis of the […]
where F0 and F are the fluorescence intensities of HSA in the absence and the presence of quencher (Q, Ru complex), respectively; kq is the bimolecular quenching constant; τ0 is the average lifetime of the HSA in the absence of quencher (7 × 10-9 s), [Q] is the concentration of quencher, KSV is the Stern–Volmer constant. Since ruthenium complexes both absorb light at the excitation and the emission wavelengths in order to correlate the inner filter effect the following equation was used: where Fcor and F are the corrected/uncorrected fluorescence intensities of HSA, Aem and Aex are the absorbance value of the solution at the emission and the excitation wavelength […]
quenching involving some type of binding interaction between HSA and ruthenium complexes. In this case the Stern-Volmer constant can be consider as an association constant for formation of HSA-Ru-complexes adducts. […]
(also on this page, place not known: nm , Stern -Volmer ][1][1 0 0 QKQkF SVq ·+=·+= τ 10 -9 [ Q] Stern –Volmer es 210 exem AA cor FF + ·= F -binding ct -DNA ba nds complex w ith DNA)

4T1 cells = experiment: Ruthenium uptake measured by ICP-MS; type: cell-based; conditions: 4T1, [Ru-complex] = 2 µM, 24 h
Procedure: Cells were seeded on a 6-well plate with a density of 3 × 10^5 cells per cm^2. 24 h after the incubation ruthenium complexes were added at 2 µM concentration. Cells were incubated in medium without serum for 24 h. After incubation cells were washed twice with PBS, detached by trypsin (trypsin/EDTA from Gibco) treatment, diluted in PBS and counted. Cells were digested in concentrated nitric acid overnight at room temperature and then diluted with water. The ruthenium content of the sample was determined by the inductively coupled plasma mass spectrometry (ICP-MS). Results were calculated as ruthenium concentration per cell (assuming the average volume of cell was 1.7 pL [31]).

[3] = tested on: Calf thymus deoxyribonucleic acid; experiment: DNA absorption titration (intrinsic DNA-binding constant); conditions: [Ru] = 10 µM, 0.05 M Tris/HCl pH 7.4, 37 °C
Procedure: Calf thymus deoxyribonucleic acid was purchased from Sigma-Aldrich and its stock solution was prepared by dissolving of solid DNA in water. DNA concentrations per nucleotide were determined by absorption spectroscopy using the molar absorption coefficient of 6,600 M^−1cm^−1 at the wavelength of 260 nm. DNA-binding experiments were performed in 0.05 M Tris/HCl buffer (pH 7.4) at 37 °C. […] Ruthenium–DNA solutions were allowed to incubate for 5 min before the spectra were recorded. The intrinsic DNA-binding constant was calculated from the following Eq. [4]. DNA/εa-εf=DNA/εa-εf+1/Kbεb-εf, where [DNA] is the total DNA concentration in nucleotides, ε a, ε b, ε f are the apparent absorption coefficients of A/[ruthenium complex] of the MLCT absorption band at a given DNA concentration, fully bound and free ruthenium complex, respectively, K b is binding constant.
To be submitted to Journal of Biological Inorganic Chemistry intercalation.[4] The hypochromism and batochromism at MLCT bands is found usually higher for other reported polypyridyl DNA intercalative Ru(II) complexes.[5-8] To assess this interaction the intrinsic DNA-binding constant was calculated from the following equation […]
where [DNA] is the total DNA concentration in nucleotides, εa, εb, εf are the apparent absorption coefficients of A/[ruthenium complex] of the MLCT absorption band at a given DNA concentration, fully bound and free ruthenium complex, respectively, Kb is binding […]
isosbestic points and gradual decrease of the absorption of MLCT bands. This observation […]
rather week interaction with DNA it is not further discussed.
Fig. S3. Changes in absorption spectra of [Ru(dip)2(CH3bpy-DCU)]2+ and [Ru(dip)2(CH3bpy-CH3)]2+ after addition of ct-DNA. Experimental conditions: [Ru] = 10 μM; Tris/HCl pH 7.4, T = 37°C, A. [DNA] = 0 – 2 μM; B. [DNA] = 5 – 120 μM. […]

[4] = aqueous solution, ref [11], cited from earlier work

| Molecule | IC50 ([1]; with serum (2%)) [µM] | IC50 ([1]; without serum) [µM] | K a, association constant for formation of HSA-ruthenium(II) polypyridyl complex adducts [2] | relative ruthenium accumulation in cells (4T1 cells) | K b, binding constant for formation of DNA-ruthenium(II) polypyridyl complex adducts [3] | τ, luminescence lifetime ([4]; air-equilibrated conditions) [ns] | φ, quantum yield of luminescence ([4]; air-equilibrated conditions) | τ, luminescence lifetime ([4]; deoxygenated conditions) [µs] | φ, quantum yield of luminescence ([4]; deoxygenated conditions) |
| --- | --- | --- | --- | --- | --- | --- | --- | --- | --- |
| [Ru(dip)2(1,3-dicyclohexyl-1-[4-carbonyl-(4′-methyl-2,2′-bipyridyl)]-urea)]Cl2 [[Ru(dip)2(CH3bpy-DCU)]^2+] | 4.62 ± 0.22 | 2.54 ± 1.12 | 0.98 ± 0.03 ×10^5 M^−1 | highest accumulation | 0.60 ± 0.02 ×10^5 M^−1 | – | – | – | – |
| Cc1ccnc(-c2cc(C)ccn2)c1.[Ru+2].c1ccc(-c2ccnc3c2ccc2c(-c4ccccc4)ccnc23)cc1.c1ccc(-c2ccnc3c2ccc2c(-c4ccccc4)ccnc23)cc1 [[Ru(dip)2(CH3bpy-CH3)]^2+] | 6.28 ± 0.52 | 2.45 ± 0.42 | 1.24 ± 0.06 ×10^5 M^−1 | – | 0.53 ± 0.03 ×10^5 M^−1 | – | – | – | – |
| Cc1ccnc(-c2cc(C(=O)[O-])ccn2)c1.[Ru+2].c1ccc(-c2ccnc3c2ccc2c(-c4ccccc4)ccnc23)cc1.c1ccc(-c2ccnc3c2ccc2c(-c4ccccc4)ccnc23)cc1 [[Ru(dip)2(CH3bpy-COO)]^+] | 16 ± 1.5 | 7.23 ± 0.53 | 1.17 ± 0.04 ×10^5 M^−1 | much smaller accumulation than the rest of the studied complexes | 1.05 ± 0.15 ×10^5 M^−1 | – | – | – | – |
| [Ru+2].c1ccc(-c2ccccn2)nc1.c1ccc(-c2ccnc3c2ccc2c(-c4ccccc4)ccnc23)cc1.c1ccc(-c2ccnc3c2ccc2c(-c4ccccc4)ccnc23)cc1 [[Ru(dip)2(bpy)]^2+] | 16.7 ± 1.88 | 4.15 ± 0.57 | 0.78 ± 0.02 ×10^5 M^−1 | – | 0.82 ± 0.01 ×10^5 M^−1 | – | – | – | – |
| O=[N+]([O-])c1nccn1CCCc1ccnc(-c2ccccn2)c1.[Ru+2].c1ccc(-c2ccnc3c2ccc2c(-c4ccccc4)ccnc23)cc1.c1ccc(-c2ccnc3c2ccc2c(-c4ccccc4)ccnc23)cc1 [[Ru(dip)2(bpy-NitroIm)]^2+] | 7.4 ± 0.81 | 4.65 ± 0.62 | 1.10 ± 0.06 ×10^5 M^−1 | – | 0.68 ± 0.01 ×10^5 M^−1 | 810 ± 10 | 0.0103 ± 0.0004 | 1.91 ± 0.01 | 0.0341 ± 0.0004 |
